In PMC7761018, “Green Tea Catechins Induce Inhibition of PTP1B Phosphatase in Breast Cancer Cells with Potent Anti-Cancer Properties: In Vitro Assay, Molecular Docking, and Dynamics Studies” (Antioxidants, 2020) one finds IC50 data, which are given here for 1 compound.

This experiment addresses T1, PTP1B (Homo sapiens, UniProt P18031).
T1 construct: gene PTPN1
T1 sequence (P18031 1-435): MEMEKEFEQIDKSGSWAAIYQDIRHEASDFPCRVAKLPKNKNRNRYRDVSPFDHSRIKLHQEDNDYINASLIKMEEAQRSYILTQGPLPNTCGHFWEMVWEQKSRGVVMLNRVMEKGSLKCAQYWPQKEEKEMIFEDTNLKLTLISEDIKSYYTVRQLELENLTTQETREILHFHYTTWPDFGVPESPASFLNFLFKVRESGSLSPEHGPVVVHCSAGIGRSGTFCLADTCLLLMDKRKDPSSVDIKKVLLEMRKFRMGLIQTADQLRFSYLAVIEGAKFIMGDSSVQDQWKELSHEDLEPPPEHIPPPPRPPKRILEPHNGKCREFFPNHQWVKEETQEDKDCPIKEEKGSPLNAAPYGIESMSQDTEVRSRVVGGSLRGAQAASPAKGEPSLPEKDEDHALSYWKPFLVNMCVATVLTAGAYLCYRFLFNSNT
The experiment in a line: recombinant PTP1B pNPP hydrolysis assay, absorbance at […] nm. The class given is biochemical.

As to `Oc1cc(O)c2c(c1)O[C@H](c1cc(O)c(O)c(O)c1)[C@H](O)C2` [EGC, epigallocatechin], the IC50 was 104 ± 10.1 µM.

One may read the IC50 as the point on the concentration scale where inhibition reaches its midpoint.
